Assays:
K7M2 cells = assay: Mouse model of metastatic osteosarcoma, survival; format: in vivo; settings: oral PAC-1 100 mg/kg in HPβCD and TMZ 50 mg/kg, sequential, daily for five consecutive days, from seven days after K7M2 injection; n=8 mice per group
Experimental: FIG. 4. PAC-1 synergizes with TMZ to extend survival in a mouse model of metastatic osteosarcoma. Seven days after injection of K7M2 cells, mice were treated orally with PAC-1 (100 mg/kg in HPβCD), TMZ (50 mg/kg […]), or a sequential treatment with each, daily for five consecutive days; n=8 mice per group.

9 L (rat glioma) cells = assay: 9 L intracranial syngeneic rat glioma model, overall survival; format: in vivo; settings: for Median survival: F344 rats, intracranial 9 L, PAC-1 50 mg/kg oral gavage days 0-4, TMZ 50 mg/kg oral gavage days 5-9, 8 rats per group
Experimental: 9 L (rat glioma) cells were intracranially implanted in rats. PAC-1 (50 mg/kg in water) was administered via oral gavage on days 0-4, and TMZ (50 mg/kg in water) was given via oral gavage on days 5-9; 8 rates per group.
The in vivo rat experiments employed 9 L cells, a very aggressive tumor model, implanted inter-cranially in rats in 3 treatment groups (PAC-1 alone, TMZ alone, and the combination of PAC-1 and TMZ) and one control group.
PAC-1 was suspended in water, and given to the rats via oral gavage at 50 mg/kg (a relatively low dose) for 5 days followed by five days of TMZ dosing.
PAC-1 (50 mg/kg in water) was administered via oral gavage on days 0-4, and TMZ (50 mg/kg in H2O) was given via oral gavage on days 5-9.
9 L gliosarcoma was maintained as a solid subcutaneous mass in the flanks of F344 rats. For intracranial implantation, the 9 L gliosarcoma tumor was surgically excised from the carrier animal and sliced into 1 mm^3 pieces at the time of implantation.
The animals were divided into the following four experimental groups with eight animals per group: (1) Control, (2) PAC-1 alone, (3) TMZ alone, and (4) PAC-1+TMZ. The control animals only received water. Two groups of animals from PAC-1 alone and PAC-1+TMZ received an oral gavage of PAC-1 suspended in water starting day 0 six hours post implantation. PAC-1 was administered only for 5 days from day 0 to day 4. The animals from TMZ alone and PAC-1+TMZ groups received 5 doses of TMZ in water administered orally from day 5 to day 9.

9 L cell line = assay: IC50 of PAC-1 with the 9 L cell line; format: cell-based; settings: Rattus norvegicus; 72 hour experiment; initial assessment
Experimental: The initial assessment for the IC50 for PAC-1 with the 9 L cell line is about 7 μM (72 hour experiment).

[1] = Neurotoxicity of oral PAC-1 in mice; format: in vivo; settings: given orally at up to 200 mg/kg

## C=CCc1cccc(/C=N/NC(=O)CN2CCN(Cc3ccccc3)CC2)c1O [PAC-1, 2-(4-benzylpiperazin-1-yl)-N-[(2-hydroxy-3-prop-2-enyl-phenyl)methylideneamino]acetamide]
K7M2 cells
  Synergy with TMZ to extend survival: synergizes
9 L (rat glioma) cells
  Median survival: 13.5 days
9 L (rat glioma) cells; rats, PAC-1 50 mg/kg oral gavage for 5 days followed by five days of TMZ dosing
  Neurotoxicity: no neurotoxicity was observed
9 L cell line
  IC50: ~7 µM
[1]
  Neurotoxicity: No neurotoxicity was observed

## Cn1nnc2c(C(N)=O)ncn2c1=O [TMZ, Temozolomide, reference compound]
9 L (rat glioma) cells
  Median survival: 20 days

Reference: patent US12433885B2, “Procaspase combination therapy for glioblastoma” (THE BOARD OF TRUSTEES OF THE UNIVERSITY OF ILLINOIS, priority 2012, dated 2025)
